Reference: US9150568B2, “Compositions and methods for modulating FXR” (NOVARTIS AG, priority 2010, dated 2015)

Each compound was assayed against T1, human Farnesoid X Receptor (FXR) ligand binding domain (GST-FXR LBD) (Homo sapiens, UniProt Q96RI1) (assay: Human GST-FXR LBD co-activator interaction assay (HTRF)). Settings: GST-FXR LBD / biotin-SRC-1 peptide FRET; response relative to GW4064; read-out: FXR Co-activator interaction assay (EC50).
T1 construct: purchased Invitrogen
T1 sequence (Q96RI1 193-472 isoform Q96RI1-2): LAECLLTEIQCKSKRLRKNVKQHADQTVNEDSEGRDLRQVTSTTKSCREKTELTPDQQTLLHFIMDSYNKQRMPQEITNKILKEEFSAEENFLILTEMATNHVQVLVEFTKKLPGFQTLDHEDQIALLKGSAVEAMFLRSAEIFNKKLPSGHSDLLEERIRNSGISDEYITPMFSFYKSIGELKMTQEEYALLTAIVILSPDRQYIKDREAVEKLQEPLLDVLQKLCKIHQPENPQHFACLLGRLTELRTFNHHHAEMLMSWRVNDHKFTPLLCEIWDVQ
Assay type: biochemical
Summary of the method: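 FRET (HTRF) read-out of ligand-induced binding between GST-FXR LBD and an SRC-1 peptide, detected with anti-GST cryptate and streptavidin-XL665 in buffer with 50 mM KF. Response % was normalized to DMSO and to the maximal GW4064 response. EC50 came from a four-parameter fit.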

With `COc1cc(C(=O)O)cc2sc(N3C4CC[C@H]3CC(OCc3c(-c5c(C)cccc5F)noc3C3CC3)C4)nc12` (some centres unmarked) [Example 30-11] as the compound, how does the EC50 read?
The EC50 was 0.3 nM.

With `Cc1cccc(F)c1-c1noc(C2CC2)c1COC1CC2CC[C@@H](C1)N2c1ccc(C(=O)O)cn1` (some centres unmarked) [Example 30-12] as the compound, how does the EC50 read?
The EC50 was 5 nM.

Which EC50 does the source give for `Cc1cc(C(=O)O)nc(N2[C@@H]3CC[C@H]2C[C@@H](OCc2c(-c4c(C)cccc4F)noc2C2CC2)C3)n1` [Example 30-13] here?
The EC50 was 6 nM.

Which EC50 does the source give for `COc1cc(C(=O)O)cc2sc(N3C4CC[C@H]3CC(OCc3c(-c5c(C)cccc5C)noc3C3CC3)C4)nc12` (some centres unmarked) [Example 30-14] here?
Its EC50 is 1.2 nM.

`Cc1cccc(C)c1-c1noc(C2CC2)c1COC1CC2CC[C@@H](C1)N2c1ccc(C(=O)O)cn1` (some centres unmarked) [Example 30-15] was tested. Which EC50 did it give?
Its EC50 is 9 nM.

How did the EC50 turn out when `Cc1cc(C(=O)O)nc(N2C3CC[C@H]2CC(OCc2c(-c4c(C)cccc4C)noc2C2CC2)C3)n1` (some centres unmarked) [Example 30-16] was run?
The EC50 was 24 nM.

`COc1cc(C(=O)O)cc2sc(N3C4CC[C@H]3CC(OCc3c(-c5c(F)cccc5Cl)noc3C3CC3)C4)nc12` (some centres unmarked) [Example 30-17] was tested. Which EC50 did it give?
Its EC50 is 0.7 nM.

With `O=C(O)c1ccc(N2[C@@H]3CC[C@H]2C[C@@H](OCc2c(-c4c(F)cccc4Cl)noc2C2CC2)C3)nc1` [Example 30-18] as the compound, how does the EC50 read?
Its EC50 is 6 nM.

`Cc1cc(C(=O)O)nc(N2C3CC[C@H]2CC(OCc2c(-c4c(F)cccc4Cl)noc2C2CC2)C3)n1` (some centres unmarked) [Example 30-19] was tested. Which EC50 did it give?
The EC50 was 23 nM.

`COc1cc(C(=O)O)cc2sc(N3[C@@H]4CC[C@H]3C[C@@H](OCc3c(-c5ccccc5Cl)noc3C3CC3)C4)nc12` [Example 30-20] was tested. Which EC50 did it give?
Its EC50 is 0.74 nM.

How did the EC50 turn out when `O=C(O)c1ccc(N2C3CC[C@H]2CC(OCc2c(-c4ccccc4Cl)noc2C2CC2)C3)nc1` (some centres unmarked) [Example 30-21] was run?
The EC50 was 3 nM.

For `Cc1cc(C(=O)O)nc(N2C3CC[C@H]2CC(OCc2c(-c4ccccc4Cl)noc2C2CC2)C3)n1` (some centres unmarked) [Example 30-22], which EC50 is on record?
Its EC50 is 19 nM.

`O=C(O)c1cc(F)c2nc(N3[C@@H]4CC[C@H]3C[C@@H](OCc3c(-c5ccccc5C5CC5)noc3C3CC3)C4)sc2c1` [Example 30-23] was tested. Which EC50 did it give?
The EC50 was 0.4 nM.

`O=C(O)c1ccc(N2[C@@H]3CC[C@H]2C[C@@H](OCc2c(-c4ccccc4C4CC4)noc2C2CC2)C3)nc1` [Example 30-24] was tested. Which EC50 did it give?
The EC50 was 4 nM.

How did the EC50 turn out when `Cc1cc(C(=O)O)cnc1N1[C@@H]2CC[C@H]1C[C@@H](OCc1c(-c3c(F)cccc3F)noc1C1CC1)C2` [Example 30-25] was run?
The EC50 was 3 nM.

How did the EC50 turn out when `Cc1cc(N2C3CC[C@H]2CC(OCc2c(-c4c(F)cccc4F)noc2C2CC2)C3)ncc1C(=O)O` (some centres unmarked) [Example 30-26] was run?
The EC50 was 7 nM.

For `O=C(O)c1cccc(N2[C@@H]3CC[C@H]2C[C@@H](OCc2c(-c4ccccc4OC(F)F)noc2C2CC2)C3)n1` [Example 30-27], which EC50 is on record?
Its EC50 is 7 nM.

With `COC(=O)c1cc(C)c2nc(N3C4CC[C@H]3CC(OCc3c(-c5ccccc5OC(F)(F)F)noc3C3CC3)C4)sc2c1` (some centres unmarked) [Example 30-28] as the compound, how does the EC50 read?
The EC50 was 12 nM.

Which EC50 does the source give for `Cc1cc(C(=O)O)cc2sc(N3C4CC[C@H]3CC(OCc3c(-c5ccccc5OC(F)(F)F)noc3C3CC3)C4)nc12` (some centres unmarked) [Example 30-29] here?
Its EC50 is 0.5 nM.

With `COC(=O)c1cc(C)c2nc(N3C4CC[C@H]3CC(OCc3c(-c5ccccc5C(F)(F)F)noc3C3CC3)C4)sc2c1` (some centres unmarked) [Example 30-30] as the compound, how does the EC50 read?
The EC50 was 120 nM.

Which EC50 does the source give for `Cc1cc(C(=O)O)cc2sc(N3C4CC[C@H]3CC(OCc3c(-c5ccccc5C(F)(F)F)noc3C3CC3)C4)nc12` (some centres unmarked) [Example 30-31] here?
Its EC50 is 7 nM.

How did the EC50 turn out when `COC(=O)c1cc(C)c2nc(N3[C@@H]4CC[C@H]3C[C@@H](OCc3c(-c5c(F)cccc5F)noc3C3CC3)C4)sc2c1` [Example 30-32] was run?
Its EC50 is 149 nM.

With `Cc1cc(C(=O)O)cc2sc(N3C4CC[C@H]3CC(OCc3c(-c5c(F)cccc5F)noc3C3CC3)C4)nc12` (some centres unmarked) [Example 30-33] as the compound, how does the EC50 read?
The EC50 was 0.7 nM.

With `Cc1cc(C(=O)O)cc2sc(N3C4CC[C@H]3CC(OCc3c(-c5ccccc5F)noc3C3CC3)C4)nc12` (some centres unmarked) [Example 30-34] as the compound, how does the EC50 read?
Its EC50 is 1.8 nM.

How did the EC50 turn out when `Cc1cc(C(=O)O)cc2sc(N3C4CC[C@H]3CC(OCc3c(-c5ccc(F)cc5)noc3C3CC3)C4)nc12` (some centres unmarked) [Example 30-35] was run?
The EC50 was 46 nM.

With `Cc1ccccc1-c1noc(C2CC2)c1COC1CC2CC[C@@H](C1)N2c1nc2c(C)cc(C(=O)O)cc2s1` (some centres unmarked) [Example 30-36] as the compound, how does the EC50 read?
The EC50 was 1.1 nM.

How did the EC50 turn out when `COC(=O)c1cc(C)c2nc(N3C4CC[C@H]3CC(OCc3c(-c5ccccc5C)noc3C3CC3)C4)sc2c1` (some centres unmarked) [Example 30-37] was run?
The EC50 was 140 nM.

For `Cc1cc(C(=O)O)cc2sc(N3[C@@H]4CC[C@H]3C[C@@H](OCc3c(-c5ccc(F)cc5F)noc3C3CC3)C4)nc12` [Example 30-38], which EC50 is on record?
The EC50 was 1.8 nM.

How did the EC50 turn out when `COC(=O)c1cc(Br)c2nc(N3C4CC[C@H]3CC(OCc3c(-c5ccccc5OC(F)(F)F)noc3C3CC3)C4)sc2c1` (some centres unmarked) [Example 30-39] was run?
The EC50 was 36 nM.

For `O=C(O)c1cc(Br)c2nc(N3C4CC[C@H]3CC(OCc3c(-c5ccccc5OC(F)(F)F)noc3C3CC3)C4)sc2c1` (some centres unmarked) [Example 30-40], which EC50 is on record?
Its EC50 is 0.7 nM.

Which EC50 does the source give for `O=C(O)c1cc(C2CC2)nc(N2C3CC[C@H]2CC(OCc2c(-c4ccccc4OC(F)F)noc2C2CC2)C3)n1` (some centres unmarked) [Example 30-41] here?
The EC50 was 4 nM.

Which EC50 does the source give for `O=C(O)c1cc(C2CC2)nc(N2C3CC[C@H]2CC(OCc2c(-c4ccccc4OC(F)(F)F)noc2C2CC2)C3)n1` (some centres unmarked) [Example 30-42] here?
The EC50 was 3 nM.

`O=C(O)c1cc(C2CC2)nc(N2C3CC[C@H]2CC(OCc2c(-c4ccccc4C(F)(F)F)noc2C2CC2)C3)n1` (some centres unmarked) [Example 30-43] was tested. Which EC50 did it give?
Its EC50 is 4.6 nM.

`Cc1nc(N2C3CC[C@H]2CC(OCc2c(-c4ccccc4OC(F)(F)F)noc2C2CC2)C3)ccc1C(=O)O` (some centres unmarked) [Example 30-44] was tested. Which EC50 did it give?
Its EC50 is 8 nM.

With `Cc1nc(N2C3CC[C@H]2CC(OCc2c(-c4ccccc4C(F)(F)F)noc2C2CC2)C3)ccc1C(=O)O` (some centres unmarked) [Example 30-45] as the compound, how does the EC50 read?
Its EC50 is 18 nM.

`Cc1ccccc1-c1noc(C2CC2)c1CO[C@H]1C[C@H]2CC[C@@H](C1)N2c1ccc(C(=O)O)c(C)n1` [Example 30-46] was tested. Which EC50 did it give?
Its EC50 is 220 nM.

How did the EC50 turn out when `Cc1nc(N2[C@@H]3CC[C@H]2C[C@@H](OCc2c(-c4c(F)cccc4F)noc2C2CC2)C3)ccc1C(=O)O` [Example 30-47] was run?
The EC50 was 120 nM.

How did the EC50 turn out when `Cc1nc(N2[C@@H]3CC[C@H]2C[C@@H](OCc2c(-c4ccccc4F)noc2C2CC2)C3)ccc1C(=O)O` [Example 30-48] was run?
Its EC50 is 34 nM.

Which EC50 does the source give for `Cc1cccc(C)c1-c1noc(C2CC2)c1COC1CC2CC[C@@H](C1)N2c1ccc(C(=O)O)c(C)n1` (some centres unmarked) [Example 30-49] here?
Its EC50 is 140 nM.

How did the EC50 turn out when `Cc1nc(N2[C@@H]3CC[C@H]2C[C@@H](OCc2c(-c4cccc(F)c4)noc2C2CC2)C3)ccc1C(=O)O` [Example 30-50] was run?
The EC50 was 700 nM.

For `Cc1cccc(F)c1-c1noc(C2CC2)c1CO[C@H]1C[C@H]2CC[C@@H](C1)N2c1ccc(C(=O)O)c(C)n1` [Example 30-51], which EC50 is on record?
Its EC50 is 52 nM.

How did the EC50 turn out when `Cc1nc(N2C3CC[C@H]2CC(OCc2c(-c4c(F)cccc4Cl)noc2C2CC2)C3)ccc1C(=O)O` (some centres unmarked) [Example 30-52] was run?
Its EC50 is 26 nM.

Which EC50 does the source give for `O=C(O)c1ccc2nc(N3C4CC[C@H]3CC(OCc3c(-c5ccccc5OC(F)(F)F)noc3C3CC3)C4)ccc2c1` (some centres unmarked) [Example 30-53] here?
Its EC50 is 1 nM.

For `O=C(O)c1ccc2nc(N3C4CC[C@H]3CC(OCc3c(-c5ccccc5C(F)(F)F)noc3C3CC3)C4)ccc2c1` (some centres unmarked) [Example 30-54], which EC50 is on record?
Its EC50 is 16 nM.

Which EC50 does the source give for `O=C(O)c1cccc2nc(N3C4CC[C@H]3CC(OCc3c(-c5ccccc5OC(F)(F)F)noc3C3CC3)C4)ccc12` (some centres unmarked) [Example 30-55] here?
Its EC50 is 1 nM.

Which EC50 does the source give for `O=C(O)c1ccc2c(N3C4CC[C@H]3CC(OCc3c(-c5ccccc5OC(F)(F)F)noc3C3CC3)C4)ncnc2c1` (some centres unmarked) [Example 30-56] here?
The EC50 was 5.7 nM.

With `Cn1ccc2c(N3C4CC[C@H]3CC(OCc3c(-c5ccccc5OC(F)(F)F)noc3C3CC3)C4)ncc(C(=O)O)c21` (some centres unmarked) [Example 30-58] as the compound, how does the EC50 read?
Its EC50 is 210 nM.
